How the values were obtained:
[1] = test system: brain-derived neurotrophic factor (BDNF); test: BDNF blood serum levels in healthy volunteers (ELISA); format: in vivo, human; conditions: for BDNF AUC levels compared to placebo / Peak BDNF levels: serum; for BDNF AUC levels compared to placebo: 0-6 h
Description: The present double-blind placebo-controlled, within-subjects study aimed to investigate whether low doses (0, 5, 10, and 20 mcg) of LSD affect brain-derived neurotrophic factor (BDNF) blood levels in healthy volunteers. Blood samples were collected every two hours over a six-hour period, and BDNF levels were determined afterwards in blood serum.
Twenty-four recreational psychedelic users were included in this study. Prior to inclusion, participants underwent medical screening including standard blood chemistry, hematology and urinalysis. Inclusion criteria were written informed consent; age 18-40 years; previous experience with a psychedelic drug, but not within the past three months; proficient knowledge of the English language; good physical health; free from psychotropic medication; BMI between 18-28 kg/m^2. Exclusion criteria were history of drug abuse or addiction as assessed using the DSM-IV criteria; history of psychiatric and neurological disorders; previous experience with serious side effects to psychedelic drugs (anxiety or panic attacks); cardiovascular abnormalities; hypertension; psychotic disorder in first-degree relatives; tobacco smoking (>20 cigarettes/day; excessive alcohol (>20 alcoholic consumptions/week); pregnancy or lactation.
LSD doses used were 5, 10, and 20 mcg LSD base. LSD doses were dissolved in ethanol (96% Vol) resulting in a 1 mL volume and the placebo solution consisted of 1 mL of ethanol only. Test days were scheduled with a minimum of five days in between doses. A test day started at 9:00 AM with a screen for the presence of drugs of abuse in urine (THC/opiates/cocaine/amphetamines/methamphetamines), and alcohol in breath. Women were submitted to a urine pregnancy test. When tests were negative, a venous catheter was placed to draw blood and LSD or placebo was administered orally at 10:00 AM. The study was conducted according to the code of ethics on human experimentation established by the declaration of Helsinki (1964) and the World Medical Association (2013).
Blood samples were taken at −0.5 h, +2 h, +4 h and +6 h relative to drug administration; samples were centrifuged, and serum was transferred into a clean tube and frozen subsequently at −20° C. until analysis. BDNF determination was assessed using an ELISA kit (Biosensis Mature BDNF Rapid ELISA kit: human, mouse, rat; Thebarton, Australia) as described by Akinomoto et al. in Behavioural Brain Research 2019, 359, 342-352.
Therefore, only complete within-subjects (WS) cases entered analyses, using the statistical program SPSS (version 25.0). Non-parametric bootstrapped paired-samples t-tests with trapezoidal calculated AUC's as dependent variable were used for 5 mcg (N=10), 10 mcg (N=9), and 20 mcg (N=8), and corresponding placebo. Furthermore, LSD-placebo contrasts were examined using BDNF serum levels at 0 h, +2 h, +4 h and +6 h after dose administration using non-parametric bootstrapped paired samples t-tests. Lastly, to examine time effects per dose, non-parametric bootstrapped repeated measures ANOVA (0 h, +2 h, +4 h, and +6 h) was used, with subsequent non-parametric bootstrapped paired samples t-tests.

Wistar Rats = test: Novel object preference test in rats; format: in vivo, rat; conditions: for novel object preference: tested days after administration
Description: The effects of the test compound on cognitive functions in rodents, in particular on memory and learning capacity, were investigated using a novel object preference test (sometimes called “novel object recognition task”) according to the experimental design depicted in FIG. 1A. More specifically, the novel object preference test was carried out as follows:
Wistar Rats (outbred albino rats; Janvier Labs) sorted in different age groups, i.e. young (about 2 months), adult (about 9 months) and old (about 12-18 months), were administered with a saline solution (sodium chloride; 0.9% in water) or an aqueous solution of the test compound (LSD) by intraperitoneal injection (dose: 0.13 mg/kg).
Before the injection the animals were housed with other animals, and after the injection of the saline or test compound the animals were housed individually. For ten hours following the administration, the animals were video-recorded and stayed alone during the acute effects of the test compound (or saline). Then, the animals were allowed to recover for a period of 3 or 9 days.
After recovery, the animals were individually placed in an experiment arena (45×45×45 cm) once a day for 10 minutes over a period of 3 days (acclimatization session). The experiment arena as used herein typically includes two 3D printed bases located on the arena's floor 10 cm apart from each other, which are intended for mounting and fixing the test objects. However, said bases are empty during the acclimatization session.
Then, the 3D printed bases were mounted with the same number (i.e. 2) and type of objects (identical LEGO™ pieces each having 12 edges and 12 vertices). The animals were individually placed in the experiment arena and trained for 7 minutes (training session). At the onset of the training session, the animals were individually placed facing the same wall of the arena, with their backs to the objects.
The animals were removed from the arena and allowed to rest for 30 minutes. In the meantime, one of the objects was replaced by a new object having the same dimensions (height and base) as the previous object but a different shape (LEGO™ piece, 14 edges and 14 vertices). The animals were individually placed in the experiment arena for 3 minutes, and their preference for the novel object was evaluated by determining the time spent by the respective animals to explore the novel object (test session; FIG. 1B). At the onset of the test, the animals were individually placed facing the same wall of the arena, with their backs to the objects in a similar manner as during the training session.

healthy human subjects = test: Two-dimensional visuospatial location (memory) task in humans; format: in vivo; conditions: single oral dose 50 μg (one subject 67.5 μg), final recall about 24 h after learning
Description: The effects of the test compound (LSD) on cognitive functions in humans—e.g. memory, learning capacity—were investigated by means of a two-dimensional (2D) visuospatial location task in accordance with the experimental design depicted in FIG. 4A. Specifically, the visuospatial location task was carried out as follows:
Thirteen healthy human subjects learned the locations of 15 card pairs taking the test compound (LSD) or placebo in a two-run cross-over open-label design separated by two weeks. Seven subjects received 50 μg of test compound (orally) in the first run and placebo in the second run of the test. Six subjects received placebo in the first run and 50 μg of test compound (orally) in the second run of the test, except for one subject who received 67.5 μg of test compound in the second run. […]
For the two experimental runs, two parallel versions (versions A and B, respectively) of the task (matrix), each showing different pictures (card pairs) at different locations, were used. […] About 24 hours after the learning session, final recall of the memory task was evaluated in a single recall run (recall task). […] The percentage of correctly recalled card locations at final recall relative to the number of correct card locations during the last immediate recall run at learning was determined as the memory performance. […]

Old animals (rats) = test: Enriched environment test (LSD plus cognitive training) with novel object preference in old rats; format: in vivo, rat; conditions: 0.13 mg/kg for 1 day or 3 consecutive days, then enriched environment 6 days (3 h per day)
Description: The potential of the test compound combined with a cognitive training to rescue cognitive functions (called “enriched environment”) was evaluated in old animals according to the experimental design depicted in FIG. 3A. More specifically, the enriched environment test was carried out as follows:
Old animal (about 12-18 months) were administered with saline (control group) or 0.13 mg/kg of test compound (LSD) for 1 day or 3 consecutive days, followed by exposure to an enriched environment for 6 consecutive days (3 hours each day). The enriched environment used herein typically consists of card boxes with 8 different rooms, wherein it is possible to find a variety of objects such as PVC tubes, toilet paper cardboard tubes or wood objects so as to stimulate the exploratory behavior. The animals were allowed to explore the enriched environment freely in groups of 3 to 5 animals. The effects of the test compound followed by the enriched environment were analyzed using one-way ANOVA, followed by Tukey HSD. The statistical analyses were performed using open source programming language R (version 3.6.0). The Mann-Whitney U test was used to compare the performance of old animals exposed to the enriched environment to that of old animals treated with saline and unexposed to the enriched environment.

CCN(CC)C(=O)[C@@H]1C=C2c3cccc4[nH]cc(c34)C[C@H]2N(C)C1 [LSD, (D)-lysergic acid diethylamide]
BDNF AUC levels compared to placebo ([1]; 5 mcg LSD oral, Z=−2.29, p=0.02): significantly increased | Peak BDNF levels ([1]; 5 mcg LSD, peak at four hours after administration): 8.95 ng/mL | BDNF AUC levels compared to placebo ([1]; 10 mcg LSD oral, Z=−2.67, p<0.01): significantly increased | Peak BDNF levels ([1]; 10 mcg LSD, peak at six hours after administration): 8.28 ng/mL | BDNF AUC levels compared to placebo ([1]; 20 mcg LSD oral, Z=−2.52, p<0.01): significantly increased | BDNF levels compared to placebo ([1]; +4 h after 5 mcg LSD, Z=−2.80, p<0.01): higher | BDNF levels compared to placebo ([1]; +4 h after 10 mcg LSD, Z=−1.95, p=0.05): higher | BDNF levels compared to placebo ([1]; +6 h after 5 mcg LSD, Z=−2.29, p<0.01): higher | BDNF levels compared to placebo ([1]; +6 h after 20 mcg LSD, Z=−2.52, p=0.01): higher | novel object preference (Wistar Rats; adult rats (about 9 months), 0.13 mg/kg i.p., saline baseline about 40%): about 60% | novel object preference (effect vs saline) (Wistar Rats; adult rats, FIG. 2): significantly increased | novel object preference (effect vs saline) (Wistar Rats; old rats (about 12-18 months), 0.13 mg/kg i.p.): not significant | novel object preference (Wistar Rats; young rats (about 2 months), 0.13 mg/kg i.p., saline baseline about 60%): about 80% | novel object preference (effect vs saline) (Wistar Rats; young rats, FIG. 2): significantly increased | performance in the 2D visuospatial location task vs placebo (healthy human subjects): significantly improved | performance in the 2D visuospatial location task vs placebo (healthy human subjects; listed as test compound): significantly increased | cognitive functions / novel object preference vs control group (Old animals (rats)): significant enhancement | cognitive functions / novel object preference vs control group (Old animals (rats); listed as test compound): significant increase
